# Measured values as given in EP4617282A1, “MEMBRANE FUSION INHIBITOR FOR […] VIRUS AND DRUG-RESISTANT STRAIN THEREOF, AND PHARMACEUTICAL USE THEREOF” (Institute Of Pathogen Biology, Chinese Academy Of Medical …, priority 2022, dated 2024).
# Residues, ends and D or L forms follow the SMILES beside them. *: point of attachment. Succinyl(4-O-cholesteryl) = CC(C)CCC[C@@H](C)[C@H]1CC[C@H]2[C@@H]3CC=C4C[C@@H](OC(=O)CCC(=O)*)CC[C@]4(C)[C@H]3CC[C@]12C
# Key:
# [1] = system: HIV-1JRFL pseudovirus; type: cell-based; conditions: TZM-b1 cells, 100 TCID50, 48 hours
# From the text: (§1) HIV-1JRFL Env expression vectors and backbone plasmas (pSG3 ΔEnv) and TZM-bl cells were described in the following literature: Xue, J., Chong, H., Zhu, Y, Zhang, J., Tong, L., Lu, J., Chen, T., Cong, Z., Wei, Q., He, Y., 2022. Efficient treatment and pre-exposure prophylaxis in rhesus macaques by an HIV fusion-inhibitory lipopeptide. Cell 185, 131-144 e118. The HIV-1JRFL Env expression vector and the backbone plasmas (pSG3 ΔEnv) were co-transfected into HEK293T cells, and the transfected cells were cultured in a cell culture incubator at 37 °C and 5% CO2 for 48 hours, and then the supernatant was collected and filtered to collect the filtrate. The resulting filtrate was a virus solution containing HIV-1JRFL pseudovirus particles (called as HIV-1JRFL virus solution), which was preserved at -80 °C for later use.
# Test virus solution: HIV-1NL4-3 virus solution or HIV-1JRFL virus solution. • 1. A test lipopeptide was dissolved in deionized water and then diluted with DMEM medium (using 3-fold dilution) to obtain a lipopeptide diluent. 9 dilutions were set for each test lipopeptide. • 2. In a 96-well plate, the lipopeptide diluent (50 µL/well) was added to drug wells and the DMEM medium (50 µL/well) was added to control wells. Each well was set with three duplicate wells. • 3. After step 2 was finished, a test virus solution (50 µL/well, a virus content of 100 TCID50) was added to the 96-well plate and incubated at room temperature for 30 minutes. • 4. After step 3 was finished, a TZM-b1 cell suspension (100 µL/well) was added to the 96-well plate and cultured for 48 hours in a cell culture incubator at 37 °C and 5% CO2. Preparation method of the TZM-b1 cell suspension: TZM-b1 cells were re-suspended in a DMEM medium and DEAE-dextran was added thereto such that the cell concentration was 10×10^4 cells/mL and the DEAE-dextran concentration was 15 µg/mL. • 5. […] Relative luminescence units (RLU) were measured by a microplate luminometer, an inhibition rate curve was made, and the half-maximal inhibition concentration (IC50) of the drug was calculated. […]
# [2] = system: HIV-1NL4-3 pseudovirus; type: cell-based; conditions: TZM-b1 cells, 100 TCID50, 48 hours
# From the text: as §1
# The preparation method of the HIV-1NL4-3 virus solution (i.e., the virus solution containing HIV-1NL4-3 pseudovirus particle) was basically the same as that of the HIV-1JRFL virus liquid, except that the HIV-1JRFL Env expression vector was replaced with HIV-1NL4-3 Env expression vector. […]
# Test virus solution: HIV-1NL4-3 virus solution or HIV-1JRFL virus solution. • 1. […] Relative luminescence units (RLU) were measured by a microplate luminometer, an inhibition rate curve was made, and the half-maximal inhibition concentration (IC50) of the drug was calculated. […]
Structure (SMILES),IC50 [1] [pM],IC50 [2] [pM]
"CC[C@H](C)[C@H](NC(=O)[C@H](CCCCN)NC(=O)[C@H](CCC(N)=O)NC(=O)[C@H](CCC(=O)O)NC(=O)[C@H](Cc1ccc(O)cc1)NC(C)=O)C(=O)N[C@@H](CCC(=O)O)C(=O)N[C@@H](CCC(=O)O)C(=O)N[C@@H](CC(C)C)C(=O)N[C@@H](CC(C)C)C(=O)N[C@@H](CCCCN)C(=O)N[C@@H](CCCCN)C(=O)N[C@@H](C)C(=O)N[C@@H](CCC(=O)O)C(=O)N[C@@H](CCC(=O)O)C(=O)N[C@@H](CCC(N)=O)C(=O)N[C@@H](CCC(N)=O)C(=O)N[C@@H](CCCCN)C(=O)N[C@@H](CCCCN)C(=O)N[C@@H](CC(N)=O)C(=O)N[C@@H](CCC(=O)O)C(=O)N[C@@H](CCC(=O)O)C(=O)N[C@@H](CCC(=O)O)C(=O)N[C@@H](CC(C)C)C(=O)N[C@@H](CCCCN)C(=O)N[C@@H](CCCCN)C(=O)N[C@@H](CC(C)C)C(=O)N[C@@H](CCC(=O)O)C(=O)N[C@@H](CCCCNC(=O)CCC(=O)O[C@H]1CC[C@@]2(C)C(=CC[C@H]3[C@@H]4CC[C@H]([C@H](C)CCCC(C)C)[C@@]4(C)CC[C@@H]32)C1)C(N)=O [LP-98, reference compound] (Ac-YEQKIEELLKKAEEQQKKNEEELKKLEK(Succinyl(4-O-cholesteryl))-NH2)",2.58,1.07
CC[C@H](C)[C@H](NC(=O)[C@H](CCC(=O)O)NC(C)=O)C(=O)N[C@@H](CCC(=O)O)C(=O)N[C@@H](CCC(=O)O)C(=O)N[C@@H](CC(C)C)C(=O)N[C@@H](CCC(=O)O)C(=O)N[C@@H](CCCCN)C(=O)N[C@@H](CCCCN)C(=O)N[C@H](C(=O)N[C@@H](CCC(=O)O)C(=O)N[C@@H](CCC(=O)O)C(=O)N[C@@H](CC(C)C)C(=O)N[C@@H](CC(C)C)C(=O)N[C@@H](CCCCN)C(=O)N[C@@H](CCCCN)C(=O)N[C@@H](C)C(=O)N[C@@H](CCC(=O)O)C(=O)N[C@@H](CCC(=O)O)C(=O)N[C@@H](CCC(N)=O)C(=O)N[C@@H](CCC(N)=O)C(=O)N[C@@H](CCCCN)C(=O)N[C@@H](CCCCN)C(=O)N[C@@H](CC(N)=O)C(=O)N[C@@H](CCC(=O)O)C(=O)N[C@@H](CCC(=O)O)C(=O)N[C@@H](CCC(=O)O)C(=O)N[C@@H](CC(C)C)C(=O)N[C@@H](CCCCN)C(=O)N[C@@H](CCCCN)C(=O)N[C@@H](CC(C)C)C(=O)N[C@@H](CCC(=O)O)C(=O)N[C@@H](CCCCNC(=O)CCC(=O)O[C@H]1CC[C@@]2(C)C(=CC[C@H]3[C@@H]4CC[C@H]([C@H](C)CCCC(C)C)[C@@]4(C)CC[C@@H]32)C1)C(N)=O)[C@@H](C)CC [LP-101] (Ac-EIEELEKKIEELLKKAEEQQKKNEEELKKLEK(Succinyl(4-O-cholesteryl))-NH2),2.26,
CC[C@H](C)[C@H](NC(=O)[C@H](CCCCN)NC(=O)[C@H](CCCCN)NC(=O)[C@H](CCC(=O)O)NC(=O)[C@H](Cc1c[nH]c2ccccc12)NC(=O)[C@H](CCC(=O)O)NC(=O)[C@H](CCC(=O)O)NC(=O)[C@H](Cc1c[nH]c2ccccc12)NC(C)=O)C(=O)N[C@@H](CCC(=O)O)C(=O)N[C@@H](CCC(=O)O)C(=O)N[C@@H](CC(C)C)C(=O)N[C@@H](CCC(=O)O)C(=O)N[C@@H](CCCCN)C(=O)N[C@@H](CCCCN)C(=O)N[C@H](C(=O)N[C@@H](CCC(=O)O)C(=O)N[C@@H](CCC(=O)O)C(=O)N[C@@H](CC(C)C)C(=O)N[C@@H](CC(C)C)C(=O)N[C@@H](CCCCN)C(=O)N[C@@H](CCCCN)C(=O)N[C@@H](C)C(=O)N[C@@H](CCC(=O)O)C(=O)N[C@@H](CCC(=O)O)C(=O)N[C@@H](CCC(N)=O)C(=O)N[C@@H](CCC(N)=O)C(=O)N[C@@H](CCCCN)C(=O)N[C@@H](CCCCN)C(=O)N[C@@H](CC(N)=O)C(=O)N[C@@H](CCC(=O)O)C(=O)N[C@@H](CCC(=O)O)C(=O)N[C@@H](CCC(=O)O)C(=O)N[C@@H](CC(C)C)C(=O)N[C@@H](CCCCN)C(=O)N[C@@H](CCCCN)C(=O)N[C@@H](CC(C)C)C(=O)N[C@@H](CCC(=O)O)C(=O)N[C@@H](CCCCNC(=O)CCC(=O)O[C@H]1CC[C@@]2(C)C(=CC[C@H]3[C@@H]4CC[C@H]([C@H](C)CCCC(C)C)[C@@]4(C)CC[C@@H]32)C1)C(N)=O)[C@@H](C)CC [LP-104] (Ac-WEEWEKKIEELEKKIEELLKKAEEQQKKNEEELKKLEK(Succinyl(4-O-cholesteryl))-NH2),60.2,14.5
